Values of other authors, collected in patent US8426341B2, “Herbicide formulation” (priority 2005, dated 2013).

Conditions: for pKas (single or first listed value): acid form / neutral form equilibrium, exemplary values; for pKas (second listed value): second value for compounds with more than one acidic hydrogen

| Compound | pKas (single or first listed value) | pKas (second listed value) |
| --- | --- | --- |
| CC(Oc1ccc(Oc2ncc(C(F)(F)F)cc2Cl)cc1)C(=O)O (centres unmarked) [Haloxyfop] | 2.9 |  |
| O=C(O)CCCOc1ccc(Cl)cc1Cl [2,4-DB] | 4.8 |  |
| O=C(O)COc1nc(Cl)c(Cl)cc1Cl [Triclopyr, 3,5,6-trichloro-2-pyridyloxyacetic acid] | 2.68 | 3.97 |
| O=C(O)c1cc(Oc2ccc(C(F)(F)F)cc2Cl)ccc1[N+](=O)[O-] [Acifluorfen] | 3.86 |  |
| C[C@@H](Oc1ccc(Oc2ccc(C(F)(F)F)cn2)cc1)C(=O)O [Fluazifop-p] | 2.98 |  |
| CC(C)N1C(=O)c2ccccc2NS1(=O)=O [Bentazon] | 3.30 |  |
| Imazamethbenz | 2.9 |  |
| CC(C)C1(C)N=C(c2nc3ccccc3cc2C(=O)O)NC1=O (centres unmarked) [Imazaquin] | 3.8 |  |
| CC(Oc1ccc(Oc2ccc(Cl)cc2Cl)cc1)C(=O)O (centres unmarked) [Diclofop] | 3.57 |  |
| N#Cc1cc(Br)c(O)c(Br)c1 [Bromoxynil] | 4.06 |  |
| O=C(O)c1c(Cl)ccc2cc(Cl)cnc12 [Quinclorac] | 4.34 |  |
| CP(=O)(O)CCC(N)C(=O)O (centres unmarked) [Glufosinate] | 2 | 2.9 |
| COc1c(Cl)ccc(Cl)c1C(=O)O [Dicamba, 3,6-dichloro-O-anisic acid] | 1.87 |  |
| C[C@@H](Oc1ccc(Oc2cnc3cc(Cl)ccc3n2)cc1)C(=O)O [Quizalofop-p] | 1.25 |  |
| Nc1c(Cl)c(Cl)nc(C(=O)O)c1Cl [Picloram] | 2.3 |  |
